Assay results published in US20180355033A1, “ANTIBODIES, COMPOUNDS AND SCREENS FOR IDENTIFYING AND TREATING CACHEXIA OR PRE-CACHEXIA” (Dana-Farber Cancer Institute, Inc., priority 2015, published 2018).
Entries after “also recorded” stand apart in the source; their conditions may differ.

Columns and labels:
[1] = test system: Primary human myoblast differentiated into terminal myotubes; assay: Cachexia induction by recombinant S100/HMGB1 ligands, myosin HC in-cell Western; format: cell-based; conditions: recombinant ligand applied each day for 3 days
Method: FIGS. 1-3 illustrate the effect of various proteins of the S100 family, as well as HMGB1, as cachexia inducers when compared with cachexia-inducing media. Primary human myoblast were plated and differentiated into terminal myotubes as previously described. Recombinant ligands were prepared at the same dose curve in Hanks Balance Salt Solution (buffer) and applied 1:2 v:v to fresh maintenance media each day for 3 days. Cells were assessed for myosin HC content by in-cell Western staining as previously described.

RAGE [2] = molecular target: T1, RAGE (Homo sapiens, UniProt Q15109); assay: Direct immunoprecipitation with RAGE; format: binding; conditions: direct immunoprecipitation experiments
HSkM = assay: Functional testing in Cachexia Assay (HSkM functional assay); format: cell-based, human; conditions: FIG. 25
Text: This implies that the modeled Ab epitope is likely a functional focused target for Ab therapy and that this is the basis for further small molecule therapeutic development for cancer cachexia and other RAGE mediated diseases.

RAGE [3] = molecular target: T1, RAGE; conditions: cited from earlier work
A-beta brain entry = conditions: in vivo; cited from earlier work
rat model of ICH = conditions: cited from earlier work
V domain of RAGE = V domain of RAGE (Homo sapiens, UniProt Q15109); conditions: cited from earlier work
RAGE-expressing cells = RAGE-expressing cells in vitro and mouse brain in vivo; cited from earlier work

T1 sequence (Q15109 23-404): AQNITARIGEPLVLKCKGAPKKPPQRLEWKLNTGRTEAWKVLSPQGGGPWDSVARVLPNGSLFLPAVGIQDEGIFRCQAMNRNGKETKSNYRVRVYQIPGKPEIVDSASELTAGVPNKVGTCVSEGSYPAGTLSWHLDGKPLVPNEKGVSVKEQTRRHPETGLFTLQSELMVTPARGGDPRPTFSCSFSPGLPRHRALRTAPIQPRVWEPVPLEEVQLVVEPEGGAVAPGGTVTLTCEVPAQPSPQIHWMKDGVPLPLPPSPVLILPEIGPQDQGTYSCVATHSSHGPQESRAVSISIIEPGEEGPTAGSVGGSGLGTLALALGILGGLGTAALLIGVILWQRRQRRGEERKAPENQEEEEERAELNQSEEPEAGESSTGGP
Sequence of V domain of RAGE (Q15109 23-116 limits assumed): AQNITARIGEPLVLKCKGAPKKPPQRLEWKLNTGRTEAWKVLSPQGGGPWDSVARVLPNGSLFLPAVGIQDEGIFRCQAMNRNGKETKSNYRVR

With “S100A8/A9: recombinant S100A8/A9 (Calprotectin)” the “induction of the cachectic phenotype (myosin HC content)” value (“induction of the cachectic phenotype” below) [1] was “capable of inducing the cachexia phenotype” and the “direct binding to RAGE” value (RAGE [2]) was “directly bind to RAGE”.

In the case of CCCCCC(=Cc1ccccc1)CN(CCc1c[nH]c2ccccc12)C(=O)c1ccc(Cl)c([N+](=O)[O-])c1 [FPS3], the “inhibition of cachexia phenotype” value (HSkM) is reported as “inhibits cachexia phenotype”.

In the case of CCN(CC)CCOc1cccc(Nc2nc(-c3ccc(Cl)cc3)cc(-c3ccc(Cl)cc3)n2)c1 [Compound 59, 4,6-bis(4-chlorophenyl)-N-(3-(2-(diethylamino)ethoxy)phenyl)-pyrimidin-2-amine], the affinity to ligand (RAGE [3]) is given as “highest affinity to ligand”, the “inhibition (not further specified)” value (RAGE [3]) is given as “most significant inhibition” and the “A-beta brain entry inhibition” value (A-beta brain entry) is given as “most potent A-beta brain entry inhibition”.

For O=C(c1ccc(Cl)cc1)N(Cc1ccccc1)C1CCCCC1 [FPS-ZM1], the “BBB damage, brain edema, motor dysfunction, nerve fiber injury” value (rat model of ICH; rat ICH model, FPS-ZM1 administration) is listed as “significant improvements of BBB damage, brain edema, motor dysfunction, and nerve fiber injury”, the “FeCl2-induced RAGE and nuclear factor κB p65 upregulation” value (rat model of ICH; rat, in vivo) is listed as “reversed FeCl2-induced RAGE and nuclear factor κB p65 upregulation” and the “blocking of Aβ binding to the V domain of RAGE” value (V domain of RAGE) is listed as “blocked A13 binding to the V domain of RAGE”. The “inhibition of Aβ40- and Aβ42-induced cellular stress” value (RAGE-expressing cells) was “inhibited A1340- and A1342-induced cellular stress”.

For CCN(CC)CCOc1ccccc1Nc1nc(-c2ccc(Cl)cc2)cc(-c2ccc(Cl)cc2)n1 [Compound 60, 4,6-bis(4-chlorophenyl)-N-(2-(2-(diethylamino)ethoxy)phenyl)-pyrimidin-2-amine], the affinity to ligand (RAGE [3]) is listed as “highest affinity to ligand” and the in vitro activity (RAGE [3]) is listed as “best in vitro activity”.

For CCN(CC)CCOc1cccc(Nc2nc(C)cc(-c3ccc(OCCC4CCCCC4)cc3)n2)c1 [Compound 53, 4-(4-(2-cyclohexylethoxy)phenyl)-N-(3-(2-(diethylamino)ethoxy)-phenyl)-6-methylpyrimidin-2-amine], the affinity to ligand (RAGE [3]) is listed as “highest affinity to ligand”.

B1: S100B: recombinant S100 family RAGE ligand (protein, UniProt P04271 2-92, looked up)
Protein S100-B: SELEKAMVALIDVFHQYSGREGDKHKLKKSELKELINNELSHFLEEIKEQEVVDKVMETLDNDGDGECDFQEFMAFVAMVTTACHEFFEHE
In the case of B1, the “induction of the cachectic phenotype” value [1] is reported as “little or no activity in inducing cachexia; also recorded: do not induce precachexia and/or cachexia”.

B2: HMGB1: high mobility group box 1, RAGE ligand (protein, UniProt P09429 1-215, looked up)
High mobility group protein B1: MGKGDPKKPRGKMSSYAFFVQTCREEHKKKHPDASVNFSEFSKKCSERWKTMSAKEKGKFEDMAKADKARYEREMKTYIPPKGETKKKFKDPNAPKRPPSAFFLFCSEYRPKIKGEHPGLSIGDVAKKLGEMWNNTAADDKQPYEKKAAKLKEKYEKDIAAYRAKGKPDAAKKGVVKAEKSKKKKEEEEDEEDEEDEEEEEDEEDEDEEEDDDDE
In the case of B2, the “induction of the cachectic phenotype” value [1] is reported as “do not induce precachexia and/or cachexia; also recorded: not cachexogenic in muscle; also recorded: cannot; also recorded: does not induce the cachectic phenotype”.

B3: S100 A7: recombinant RAGE ligand of the S100 family (protein, UniProt P31151 2-101, looked up)
Protein S100-A7: SNTQAERSIIGMIDMFHKYTRRDDKIEKPSLLTMMKENFPNFLSACDKKGTNYLADVFEKKDKNEDKKIDFSEFLSLLGDIATDYHKQSHGAAPCSGGSQ
For B3, the “induction of the cachectic phenotype” value [1] was “inducers of the cachectic phenotype”, the “induction of the cachectic phenotype” value ([1]; listed as S100A7) was “capable of inducing the cachexia phenotype” and the “direct binding to RAGE” value (RAGE [2]) was “directly bind to RAGE”.

B4: A8: recombinant RAGE ligand of the S100 family (protein, UniProt P05109 1-93, looked up)
Protein S100-A8: MLTELEKALNSIIDVYHKYSLIKGNFHAVYRDDLKKLLETECPQYIRKKGADVWFKELDINTDGAVNFQEFLILVIKMGVAAHKKSHEESHKE
In the case of B4, the “induction of the cachectic phenotype” value [1] is reported as “inducers of the cachectic phenotype”.

B5: A9: recombinant RAGE ligand of the S100 family (protein, UniProt P06702 1-114, looked up)
Protein S100-A9: MTCKMSQLERNIETIINTFHQYSVKLGHPDTLNQGEFKELVRKDLQNFLKKENKNEKVIEHIMEDLDTNADKQLSFEEFIMLMARLTWASHEKMHEGDEGPGHHHKPGLGEGTP
In the case of B5, the “induction of the cachectic phenotype” value [1] is reported as “inducers of the cachectic phenotype”.
